From US11896589B2, “Diazinyl amino acridines and medical uses thereof” (MyCural Therapeutics AB, priority 2018, dated 2024) come the findings set out here.

Assay [1] deals with T1, MYC:MAX (MYC-GLuc-C + MAX-GLuc-N) in HEK293 cells (Homo sapiens, UniProt P01106).
T1 construct: expressed in transfected cells; host or cells: HEK293 (also COS-7)
Description: Assay 3C GLuc complementation assay. Type of assay: cell-based. The procedure: (§1) FIG. 4: A) Endogenous MYC:MAX (upper panel) and FRA1:JUN (lower panel) interactions as visualized as fluorescent red dots by isPLA. Nuclei were counterstained with DAPI (blue). Cells were treated with 10 μM of indicated compounds for 16 hours and subjected to isPLA using pairs of MYC and MAX and of FRA1 and JUN antibodies, respectively. As negative control, primary antibody pairs but only one oligo-conjugated secondary antibody was used. B) Quantification of MYC:MAX and C) FRA1:JUN isPLA, representing an average number of nuclear dots per cell from three microscopic fields normalized to corresponding values for DMSO-treated cells. […] 1st-4th lanes from top; coimmunoprecipitated MAX, immunoprecipitated MYC, total levels of MAX and ACTIN, respectively, as determined by western blot analysis. E) MYC:MAX GLuc assay in cells. […] 24 hours later cells were treated with […] of Example 1, Example 2 and control compound for 16 hours and thereafter analyzed in a dual luciferase assay. The ratio of Gaussia/Firefly luciferase luminescence were calculated and normalized to DMSO-treated cells.
The protein fragment complementation assay using the Gaussia luciferase (GLuc) has been described (Remy, I. & Michnick, S. W. A highly sensitive protein-protein interaction assay based on Gaussia luciferase. Nat Methods 3, 977-979, doi:10.1038/nmeth979 (2006)). […] 24 hours later cells were treated with compound or DMSO. After another 17 hours the cells were harvested and lyzed in passive lysis buffer (Promega) supplemented with complete protease inhibitor (Roche). After 60 min incubation at room temperature 20 μM D-luciferin was added (substrate of Firefly luciferase) and luminescence was measured in a Lumat LB9501 (Berthold) or OmegaFluostar (BMG Labtech) luminometer. Directly after, the Gaussia luciferase substrate Coelenterazine (Promega) was added to a final concentration of 20 μM and the luciferase activity was measured. The ratio between Gaussia and Firefly luciferase values were calculated and normalized to DMSO-treated control cells.

Assay [2] deals with T2, MYC:MAX heterodimer (MYCbHLHZip, labelled MAXbHLHZip) (Homo sapiens, UniProt P01106).
T2 construct: MYC:MAX heterodimer formation assay based on recombinant proteins
T2 sequence (P01106 368-449 limits assumed, one chain of several): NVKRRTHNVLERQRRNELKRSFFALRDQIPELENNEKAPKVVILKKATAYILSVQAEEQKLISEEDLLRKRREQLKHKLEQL
Briefly: Assay 1A MYC:MAX heterodimer MST assay. Type of assay: binding. The following applies: thermophoresis shift of 1 μM labelled MAXbHLHZip with 1 μM MYCbHLHZip. How it is done:
FIG. 1: A) Microscale thermophoresis (MST) of fluorescently labeled MAX in a MYC:MAX heterodimer formation assay based on recombinant proteins. MST of labeled MAXbHLHZip after titration of Example 1 pre-incubated with 1 μM MYCbHLHZip, or with 1 μM MAXbHLHZip. Fluorescence intensity of labeled MAXbHLHZip relative DMSO was plotted against Example 1 concentration. B) Surface plasmon resonance (SPR) of MYC:MAX heterodimer formation assay. MAXbHLHZip was immobilized by an amino coupling procedure to a CM5 sensor chip. MYCbHLHZip pre-incubated with or without compound (as indicated) was injected over MAX for 180 seconds, allowed to dissociate for 240 seconds and regenerated. […] C) MYC binding response units (RU) plotted against Example 1 concentration from which an IC50 of Example 1 inhibition of MYC:MAX heterodimer formation is determined, summary of four experiments. […]
MST measures the movement of fluorescent labelled molecules in a microscopic temperature gradient. Changes in charge, size or of the hydration shell of the fluorescent molecule affects its migration in the temperature gradient, which can be detected by the fluorescence of the molecule (See Seidel et al., Microscale thermophoresis quantifies biomolecular interactions under previously challenging conditions, METHODS (2013)). […] Capillaries were scanned to measure initial fluorescence of compound. […]

Assay [3] concerns the target T3, endogenous MYC:MAX interaction in MDA-MB231 cells (Homo sapiens, UniProt P01106).
T3 construct: endogenous in cells; host or cells: MDA-MB231
Description: Assay 3A isPLA assay, MYC:MAX. Type of assay: cell-based.
From the text: as §1, with “Cells were treated with 10 μM of indicated compounds for 16 hours and subjected to isPLA using pairs of MYC and MAX and of FRA1 and JUN antibodies, respectively.” left out
Assay 3A: The isPLA Assay
Identification of endogenous protein-protein interactions in fixed cells and has been described (Soderberg, O. et al., Nat Methods, 3, 995-1000 (2006)). […] Endogenous MYC:MAX or FRA-1:JUN protein interactions were visualized by fluorescence microscopy as fluorescent dots mainly localized in the cell nucleus. […]

T1 sequence (P01106 whole entry): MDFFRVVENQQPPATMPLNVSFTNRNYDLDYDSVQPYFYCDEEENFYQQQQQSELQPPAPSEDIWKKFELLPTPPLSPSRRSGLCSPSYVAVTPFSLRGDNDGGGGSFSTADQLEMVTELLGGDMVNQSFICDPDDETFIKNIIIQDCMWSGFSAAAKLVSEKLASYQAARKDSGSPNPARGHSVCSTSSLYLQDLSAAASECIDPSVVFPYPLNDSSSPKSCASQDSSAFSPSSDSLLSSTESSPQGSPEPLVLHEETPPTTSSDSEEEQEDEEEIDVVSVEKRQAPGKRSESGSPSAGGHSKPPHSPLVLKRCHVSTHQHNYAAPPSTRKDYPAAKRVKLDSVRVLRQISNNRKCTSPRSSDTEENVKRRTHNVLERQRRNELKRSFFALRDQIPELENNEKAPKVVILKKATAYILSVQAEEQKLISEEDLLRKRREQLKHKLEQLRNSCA
T3 sequence (P01106 whole entry): as above

Turning to `CCOc1ccc2nc3cc(/N=N/c4ccc(N)nc4N)ccc3c(N)c2c1` [Example 1, 3-((9-amino-7-ethoxyacridin-3-yl)diazenyl)pyridine-2,6-diamine sulphate hydrate], the inhibition at 10 µM in assay [1] (HEK293) was determined as 50%; in assay [3] (MDA-MB-231), 95%. For the same molecule, the IC50 in assay [1] (exogenous MYC:MAX) was 10 µM. For the same molecule, in assay [2], the dissociation constant Kd was found to be 4.3 µM. Besides, the “isPLA signals, % of DMSO control” value in assay [3] (10 μM, 24 hours) is given as 7%.
